{"source": "patent US20250049036A1", "about": "(priority 2021, published 2025)", "data": [{"system": "Pyricularia oryzae", "assay": "microbe, parasite or virus in culture", "assay_type": "cell-based", "settings": "168 h, read-out: control compared to the untreated check", "units": {"inhibition of growth at 300 ppm": "%"}, "values": [{"smiles": "Cn1cc(Br)c2cc(C(=O)NC(C)(C)COC(=O)c3ccccc3C(F)(F)F)cnc21", "note": "[Compound 180, 2-(3-bromo-1-methyl-1H-pyrrolo[2,3-b]pyridine-5-carboxamido)-2-methylpropyl 2-(trifluoromethyl)benzoate]", "inhibition of growth at 300 ppm": "≥ 70"}, {"smiles": "Cc1ccccc1C(=O)OCC(C)(C)NC(=O)c1cnc2c(c1)c(Br)cn2C", "note": "[Compound 185, 2-(3-bromo-1-methyl-1H-pyrrolo[2,3-b]pyridine-5-carboxamido)-2-methylpropyl 2-methylbenzoate]", "inhibition of growth at 300 ppm": "≥ 70"}]}, {"system": "Parastagonospora nodorum", "assay": "Parastagonospora nodorum (PARANO) spore growth inhibition in liquid medium, 96-well microtiter plate, OD 600", "assay_type": "cell-based", "settings": "spore suspension in PDB liquid medium, 18° C., 5-6 days, OD at 600, read-out: control compared to the untreated check", "procedure": "Potato dextrose (PDB) liquid medium (Difco) containing a PARANO (10^5 spores/ml) spore suspension was prepared. For the inhibition assay, each test compound was solved in dimethyl sulfoxide. 100 μl of the test compound in media-solution was added to a 96-well microtiter plate, consequently, the same volume (100 μl) of spore suspension was added to the well making the final test concentrations and the plate was incubated at 18° C. for 5-6 days. The growth inhibition was evaluated by measuring the OD at 600. Percent inhibition was calculated with the below formula: […]", "units": {"inhibition of growth at 300 ppm": "%"}, "values": [{"smiles": "Cn1ccc2cc(C(=O)NC(C)(C)Cc3ccc(C(C)(C)C)cc3)cnc21", "note": "[Compound 16, N-(1-(4-(tert-butyl)phenyl)-2-methylpropan-2-yl)-1-methyl-1H-pyrrolo[2,3-b]pyridine-5-carboxamide]", "inhibition of growth at 300 ppm": "≥ 70"}, {"smiles": "Cn1ccc2cc(C(=O)NC(C)(C)Cc3ccccc3Cl)cnc21", "note": "[Compound 17, N-(1-(2-chlorophenyl)-2-methylpropan-2-yl)-1-methyl-1H-pyrrolo[2,3-b]pyridine-5-carboxamide]", "inhibition of growth at 300 ppm": "≥ 70"}, {"smiles": "CC(C)c1ccc(CC(C)(C)NC(=O)c2cnc3c(ccn3C)c2)cc1", "note": "[Compound 18, N-(1-(4-isopropylphenyl)-2-methylpropan-2-yl)-1-methyl-1H-pyrrolo[2,3-b]pyridine-5-carboxamide]", "inhibition of growth at 300 ppm": "≥ 70"}, {"smiles": "Cn1cc(C2CC2)c2cc(C(=O)NC(C)(C)Cc3ccccc3F)cnc21", "note": "[Compound 60, 3-cyclopropyl-N-(1-(2-fluorophenyl)-2-methylpropan-2-yl)-1-methyl-1H-pyrrolo[2,3-b]pyridine-5-carboxamide]", "inhibition of growth at 300 ppm": "≥ 70"}, {"smiles": "Cc1ccc(F)cc1C(O)C(C)(C)NC(=O)c1cnc2c(c1)c(Br)cn2C", "note": "(stereo not shown) [Compound 135, 3-bromo-N-(1-(5-fluoro-2-methylphenyl)-1-hydroxy-2-methylpropan-2-yl)-1-methyl-1H-pyrrolo[2,3-b]pyridine-5-carboxamide]", "inhibition of growth at 300 ppm": "≥ 70"}, {"smiles": "Cc1cc(F)ccc1C(O)C(C)(C)NC(=O)c1cnc2ccsc2c1", "note": "(stereo not shown) [Compound 173, N-(1-(4-fluoro-2-methylphenyl)-1-hydroxy-2-methylpropan-2-yl)thieno[3,2-b] pyridine-6-carboxamide]", "inhibition of growth at 300 ppm": "≥ 70"}, {"smiles": "C=C(C)CC(C)(COc1ccccc1F)NC(=O)c1cnc2c(c1)c(Cl)cn2C", "note": "(stereo not shown) [Compound 179]", "inhibition of growth at 300 ppm": "≥ 70"}, {"smiles": "Cc1ccc(COCC(C)(C)NC(=O)c2cnc3ccsc3c2)c(C)c1", "note": "[Compound 200, N-(1-((2,4-dimethylbenzyl)oxy)-2-methylpropan-2-yl)thieno[3,2-b] pyridine-6-carboxamide]", "inhibition of growth at 300 ppm": "≥ 70"}, {"smiles": "CC(C)(COc1ccnc(Cl)c1)NC(=O)c1cnc2ccsc2c1", "note": "[Compound 205, N-(1-((2-chloropyridin-4-yl)oxy)-2-methylpropan-2-yl)thieno[3,2-b] pyridine-6-carboxamide]", "inhibition of growth at 300 ppm": "≥ 70"}, {"smiles": "CC(C)(Cc1ccccc1)NC(=O)c1cc2c(nc1Cl)CCC2", "note": "[Compound 210, 2-chloro-N-(2-methyl-1-phenylpropan-2-yl)-6,7-dihydro-5H-cyclopenta[b]pyridine-3-carboxamide]", "inhibition of growth at 300 ppm": "≥ 70"}, {"smiles": "COc1nc2c(cc1C(=O)NC(C)(C)Cc1ccccc1)CCC2", "note": "[Compound 217, 2-methoxy-N-(2-methyl-1-phenylpropan-2-yl)-6,7-dihydro-5H-cyclopenta[b]pyridine-3-carboxamide]", "inhibition of growth at 300 ppm": "≥ 70"}, {"smiles": "Cc1ccc(C)c(COCC(C)(C)NC(=O)c2cnc3c(ccn3C)c2)c1", "note": "[Compound 227, N-(1-((2,5-dimethylbenzyl)oxy)-2-methylpropan-2-yl)-1-methyl-1H-pyrrolo[2,3-b]pyridine-5-carboxamide]", "inhibition of growth at 300 ppm": "≥ 70"}, {"smiles": "COc1nc2c(cc1C(=O)NC(C)(C)COc1ccnc(Cl)c1)CCC2", "note": "[Compound 243, N-(1-((2-chloropyridin-4-yl)oxy)-2-methylpropan-2-yl)-2-methoxy-6,7-dihydro-5H-cyclopenta[b]pyridine-3-carboxamide]", "inhibition of growth at 300 ppm": "≥ 70"}, {"smiles": "COc1nc2c(cc1C(=O)NC1(Cc3ccccc3)CC1)CCC2", "note": "[Compound 245, N-(1-benzylcyclopropyl)-2-methoxy-6,7-dihydro-5H-cyclopenta[b]pyridine-3-carboxamide]", "inhibition of growth at 300 ppm": "≥ 70"}, {"smiles": "CON(C(=O)c1cnc2c(c1)CCC2)C(C)Cc1ccccc1F", "note": "(stereo not shown) [Compound 253, N-(1-(2-fluorophenyl)propan-2-yl)-N-methoxy-6,7-dihydro-5H-cyclopenta[b]pyridine-3-carboxamide]", "inhibition of growth at 300 ppm": "≥ 70"}]}, {"system": "Phakopsora pachyrhizi", "assay": "Phakopsora pachyrhizi test on soybean, preventive, greenhouse", "assay_type": "in vivo", "settings": "preventive spray on soybean, inoculated one day after treatment, read-out: control (efficacy, disease severity) compared to the untreated check", "procedure": "The respective compound was dissolved in 2% dimethyl sulfoxide/acetone and then mixed with water containing emulsifier to the calibrated spray volume of 30 mL. Each spray solution was poured into a spray bottle for further application.\nTo test the preventive activity of a compound, healthy young soybean plants, raised in the greenhouse, were sprayed with the active compound preparation at the stated application rate inside the spray cabinets using hollow cone nozzles. One day after treatment, the plants were inoculated with a conidial suspension containing 2×10^5 Phakopsora pachyrhizi inoculum. The inoculated plants were then kept in a greenhouse chamber at 22-24° C. temperature and 80-90% relative humidity for disease expression.", "units": {"pest or weed control at 500 ppm": "%"}, "values": [{"smiles": "Cn1ccc2cc(C(=O)NC(C)(C)Cc3cccc(Cl)c3)cnc21", "note": "[Compound 22, N-(1-(3-chlorophenyl)-2-methylpropan-2-yl)-1-methyl-1H-pyrrolo[2,3-b]pyridine-5-carboxamide]", "pest or weed control at 500 ppm": "≥ 70"}, {"smiles": "CC(c1ccccc1)C(C)(C)NC(=O)c1cnc2c(c1)c(Cl)cn2C", "note": "(stereo not shown) [Compound 87, 3-chloro-1-methyl-N-(2-methyl-3-phenylbutan-2-yl)-1H-pyrrolo[2,3-b]pyridine-5-carboxamide]", "pest or weed control at 500 ppm": "≥ 70"}, {"smiles": "COc1nc2[nH]ccc2cc1C(=O)NC(C)(C)Cc1ccccc1", "note": "[Compound 88, 6-methoxy-N-(2-methyl-1-phenylpropan-2-yl)-1H-pyrrolo[2,3-b] pyridine-5-carboxamide]", "pest or weed control at 500 ppm": "≥ 70"}, {"smiles": "Cc1nc2[nH]ccc2cc1C(=O)NC(C)(C)Cc1ccccc1", "note": "[Compound 93, 6-methyl-N-(2-methyl-1-phenylpropan-2-yl)-1H-pyrrolo[2,3-b] pyridine-5-carboxamide]", "pest or weed control at 500 ppm": "≥ 70"}, {"smiles": "Cc1nc2[nH]ccc2cc1C(=O)NC(C)(C)Cc1ccc(F)cc1", "note": "[Compound 94, N-(1-(4-fluorophenyl)-2-methylpropan-2-yl)-6-methyl-1H-pyrrolo[2,3-b]pyridine-5-carboxamide]", "pest or weed control at 500 ppm": "≥ 70"}, {"smiles": "Cc1cccc(CC(NC(=O)c2cnc3[nH]ccc3c2)C(C)(C)O)c1", "note": "(stereo not shown) [Compound 104, N-(3-hydroxy-3-methyl-1-(m-tolyl)butan-2-yl)-1H-pyrrolo[2,3-b]pyridine-5-carboxamide]", "pest or weed control at 500 ppm": "≥ 70"}, {"smiles": "C=CCC(C)(Cc1ccccc1F)NC(=O)c1cnc2ccsc2c1", "note": "(stereo not shown) [Compound 134, N-(1-(2-fluorophenyl)-2-methylpent-4-en-2-yl)thieno[3,2-b] pyridine-6-carboxamide]", "pest or weed control at 500 ppm": "≥ 70"}, {"smiles": "Cn1cc(Cl)c2cc(C(=O)NC3Cc4ccccc4C3)cnc21", "note": "[Compound 137, 3-chloro-N-(2,3-dihydro-1H-inden-2-yl)-1-methyl-1H-pyrrolo[2,3-b]pyridine-5-carboxamide]", "pest or weed control at 500 ppm": "≥ 70"}, {"smiles": "CCC(O)(CC)C(NC(=O)c1cnc2c(c1)c(Cl)cn2C)c1ccccc1", "note": "(stereo not shown) [Compound 138, 3-chloro-N-(2-ethyl-2-hydroxy-1-phenylbutyl)-1-methyl-1H-pyrrolo[2,3-b] pyridine-5-carboxamide]", "pest or weed control at 500 ppm": "≥ 70"}, {"smiles": "Cn1cc(Cl)c2cc(C(=O)NC3(c4cc(Cl)cc(Cl)c4)CC3)cnc21", "note": "[Compound 140, 3-chloro-N-(1-(3,5-dichlorophenyl)cyclopropyl)-1-methyl-1H-pyrrolo[2,3-b]pyridine-5-carboxamide]", "pest or weed control at 500 ppm": "≥ 70"}, {"smiles": "C=C(C)CC(C)(Cc1ccccc1F)NC(=O)c1cnc2c(c1)c(Br)cn2C", "note": "(stereo not shown) [Compound 142, 3-bromo-N-(1-(2-fluorophenyl)-2,4-dimethylpent-4-en-2-yl)-1-methyl-1H-pyrrolo[2,3-b]pyridine-5-carboxamide]", "pest or weed control at 500 ppm": "≥ 70"}]}]}
